In patent US20240018161A1, “MODULATORS OF CYSTIC FIBROSIS TRANSMEMBRANE CONDUCTANCE REGULATOR” (VERTEX PHARMACEUTICALS INCORPORATED, priority 2020, published 2024):
Read-outs that look alike come from different tables or passages of the source.

Biological target: CFTR-mediated chloride transport in human intestinal epithelial enteroid cells (Homo sapiens, UniProt P13569)
Assay: Membrane potential dye, Enteroid Assay A
Format: cell-based
Settings: for EC50: read-out: Ent. A EC50
Summary of the method: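 Membrane potential dye (20 μM methyl oxonol, with 30 μM CaCCinh-A01 and 30 μM Chicago Sky Blue) loaded 25 min at room temperature into ROCK-inhibitor-seeded human enteroid cells. Chloride-free stimulation buffer triggered transport, followed by 15 min fluorescence. % Activity relative to 3 μM/3 μM/300 nM triple-combination control.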

[1] = enteroid cells incubated with test compound 18-24 hours, acute 10 μM forskolin and 300 nM N-[2,4-bis(1,1-dimethylethyl)-5-hydroxyphenyl]-1,4-dihydro-4-oxoquinoline-3-carboxamide
[2] = percentage of chloride transport of triple combination control (3 μM N-[(6-amino-2-pyridyl)sulfonyl]-6-(3-fluoro-5-isobutoxy-phenyl)-2-[(4S)-2,2,4-trimethylpyrrolidin-1-yl]pyridine-3-carboxamide based)

Chain of CFTR-mediated chloride transport in human intestinal epithelial enteroid cells (P13569 with tags, fused parts or gaps DEL508-508): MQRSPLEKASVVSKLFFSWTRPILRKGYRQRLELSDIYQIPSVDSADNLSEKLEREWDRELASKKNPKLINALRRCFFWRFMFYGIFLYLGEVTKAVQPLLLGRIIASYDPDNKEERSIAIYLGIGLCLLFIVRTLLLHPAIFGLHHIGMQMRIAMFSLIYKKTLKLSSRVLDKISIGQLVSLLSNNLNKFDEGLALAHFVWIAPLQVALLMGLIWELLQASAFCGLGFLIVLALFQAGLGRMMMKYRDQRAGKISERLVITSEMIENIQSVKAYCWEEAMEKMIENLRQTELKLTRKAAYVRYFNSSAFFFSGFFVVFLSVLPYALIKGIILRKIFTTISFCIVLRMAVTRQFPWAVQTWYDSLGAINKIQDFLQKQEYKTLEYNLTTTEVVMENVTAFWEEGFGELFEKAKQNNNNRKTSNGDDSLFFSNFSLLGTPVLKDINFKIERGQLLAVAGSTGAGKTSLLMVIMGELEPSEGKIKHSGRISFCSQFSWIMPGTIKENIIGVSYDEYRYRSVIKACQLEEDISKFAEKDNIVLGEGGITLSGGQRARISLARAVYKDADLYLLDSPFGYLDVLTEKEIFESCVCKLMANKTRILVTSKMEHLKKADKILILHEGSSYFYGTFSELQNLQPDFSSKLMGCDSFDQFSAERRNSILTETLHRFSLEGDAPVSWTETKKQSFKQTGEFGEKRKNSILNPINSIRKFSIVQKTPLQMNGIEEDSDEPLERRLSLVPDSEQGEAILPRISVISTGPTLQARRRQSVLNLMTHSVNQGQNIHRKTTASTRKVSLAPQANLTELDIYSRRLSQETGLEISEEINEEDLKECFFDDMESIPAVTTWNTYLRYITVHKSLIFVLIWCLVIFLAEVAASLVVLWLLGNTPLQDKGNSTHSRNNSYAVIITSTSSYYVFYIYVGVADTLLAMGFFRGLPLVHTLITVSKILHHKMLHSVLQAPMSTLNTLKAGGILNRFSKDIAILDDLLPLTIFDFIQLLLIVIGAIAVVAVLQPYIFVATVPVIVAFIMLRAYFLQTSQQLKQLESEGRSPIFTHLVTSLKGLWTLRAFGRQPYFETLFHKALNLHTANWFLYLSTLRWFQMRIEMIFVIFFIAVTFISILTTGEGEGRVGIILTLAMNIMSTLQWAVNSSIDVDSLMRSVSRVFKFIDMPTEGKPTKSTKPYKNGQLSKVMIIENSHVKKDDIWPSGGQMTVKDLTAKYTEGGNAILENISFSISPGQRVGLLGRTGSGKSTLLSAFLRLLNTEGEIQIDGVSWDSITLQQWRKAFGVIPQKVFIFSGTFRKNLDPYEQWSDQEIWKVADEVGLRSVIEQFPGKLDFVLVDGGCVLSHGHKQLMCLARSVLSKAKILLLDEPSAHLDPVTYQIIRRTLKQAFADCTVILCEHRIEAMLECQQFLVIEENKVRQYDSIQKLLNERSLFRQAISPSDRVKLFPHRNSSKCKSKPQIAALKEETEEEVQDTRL

Compound | Ent. A Max Activity (%) (Enteroid Assay A) | EC50 (Enteroid Assay A) | EC50 [1] | Ent. A Max Activity (%) [2]
Cc1cccc(C)c1-c1cc2nc(n1)NS(=O)(=O)c1cccc(c1)C(=O)N1CCNCC1C(Cc1ccccc1)O2 (stereo not shown) [Compound 176, 9-benzyl-13-(2,6-dimethylphenyl)-10-oxa-17λ^6-thia-3,6,14,16,23-pentaazatetracyclo[16.3.1.111,15.03,8]tricosa-1(22),11,13,15(23),18,20-hexaene-2,17,17-trione] | + (+ is <30%) | 3000 to 30000 nM | – | –
Cc1cccc(C)c1-c1cc2nc(n1)NS(=O)(=O)c1cccc(c1)C(=O)N1CCN(CCC(C)(C)C)C(CO2)C1 (stereo not shown) [Compound 177, 18-(3,3-Dimethylbutyl)-12-(2,6-dimethylphenyl)-15-oxa-8λ^6-thia-1,9,11,18,22-pentaazatetracyclo[15.3.1.13,7.110,14]tricosa-3(23),4,6,10(22),11,13-hexaene-2,8,8-trione] | – | – | < 1000 nM | ++ (++ is 30-60%)
Cc1cccc(C)c1-c1cc2nc(n1)NS(=O)(=O)c1cccc(c1)C(=O)N1CCN(Cc3ccccc3)C(CO2)C1 (stereo not shown) [Compound 178, 18-Benzyl-12-(2,6-dimethylphenyl)-15-oxa-8λ^6-thia-1,9,11,18,22-pentaazatetracyclo[15.3.1.13,7.110,14]tricosa-3,5,7(23),10(22),11,13-hexaene-2,8,8-trione] | – | – | < 1000 nM | ++ (++ is 30-60%)
Cc1cccc(C)c1-c1cc2nc(n1)NS(=O)(=O)c1cccc(c1)C(=O)N1Cc3cc(C(C)(C)C)ccc3C(C1)O2 (stereo not shown) [Compound 182, 20-tert-Butyl-12-(2,6-dimethylphenyl)-15-oxa-8λ^6-thia-1,9,11,25-tetraazapentacyclo[14.7.1.13,7.110,14.017,22]hexacosa-3,5,7(26),10,12,14(25),17,19,21-nonaene-2,8,8-trione] | + (+ is <30%) | – | – | –
Cc1cccc(C)c1-c1cc2nc(n1)NS(=O)(=O)c1cccc(c1)C(=O)N1Cc3cc(C(C)(C)C)ccc3[C@H](O2)[C@H]1CC(C)C [Compound 184, (16S,24R)-20-tert-Butyl-12-(2,6-dimethylphenyl)-24-(2-methylpropyl)-15-oxa-8λ^6-thia-1,9,11,25-tetraazapentacyclo[14.7.1.13,7.110,14.017,22]hexacosa-3,5,7(26),10,12,14(25),17,19,21-nonaene-2,8,8-trione] | +++ (+++ is >600%) | < 1000 nM | – | –
Cc1cccc(C)c1-c1cc2nc(n1)NS(=O)(=O)c1cccc(c1)C(=O)N1Cc3cc(C(C)(C)C)ccc3[C@@H](O2)[C@H]1CC(C)C [Compound 185, (16R,24R)-20-tert-butyl-12-(2,6-dimethylphenyl)-24-(2-methylpropyl)-15-oxa-8λ^6-thia-1,9,11,25-tetraazapentacyclo[14.7.1.13,7.110,14.017,22]hexacosa-3,5,7(26),10,12,14(25),17,19,21-nonaene-2,8,8-trione] | +++ (+++ is >600%) | < 1000 nM | – | –
Cc1cccc(C)c1-c1cc2nc(n1)NS(=O)(=O)c1cccc(c1)C(=O)N1CCCN(Cc3ccccc3)CC(C1)O2 (stereo not shown) [Compound 205, 18-Benzyl-12-(2,6-dimethylphenyl)-15-oxa-8λ^6-thia-1,9,11,18,23-pentaazatetracyclo[14.5.1.13,7.110,14]tetracosa-3,5,7(24),10,12,14(23)-hexaene-2,8,8-trione] | ++ (++ is 30-60%) | < 1000 nM | – | –
Cc1cccc(C)c1-c1cc2nc(n1)NS(=O)(=O)c1cccc(c1)C(=O)N1CCCN(CCC(C)(C)C)CC(C1)O2 (stereo not shown) [Compound 206, 18-(3,3-Dimethylbutyl)-12-(2,6-dimethylphenyl)-15-oxa-8λ^6-thia-1,9,11,18,23-pentaazatetracyclo[14.5.1.13,7.110,14]tetracosa-3,5,7(24),10,12,14(23)-hexaene-2,8,8-trione] | ++ (++ is 30-60%) | < 1000 nM | – | –
Cc1cccc(C)c1-c1cc2nc(n1)NS(=O)(=O)c1cc(n(C)c1)C(=O)N1Cc3ccccc3C(C1)O2 (stereo not shown) [Compound 207, 11-(2,6-Dimethylphenyl)-4-methyl-14-oxa-7λ^6-thia-1,4,8,10,24-pentaazapentacyclo[13.7.1.13,6.19,13.016,21]pentacosa-3(25),5,9(24),10,12,16(21),17,19-octaene-2,7,7-trione] | – | – | < 1000 nM | ++ (++ is 30-60%)
Cc1cccc(C)c1-c1cc2nc(n1)NS(=O)(=O)c1cccc(c1)CN1Cc3ccccc3C(C1)O2 (stereo not shown) [Compound 208, 12-(2,6-Dimethylphenyl)-15-oxa-8λ^6-thia-1,9,11,25-tetraazapentacyclo[14.7.1.13,7.110,14.017,22]hexacosa-3(26),4,6,10,12,14(25),17(22),18,20-nonaene-8,8-dione] | – | – | < 1000 nM | ++ (++ is 30-60%)
Cc1cccc(C)c1-c1cc2nc(n1)NS(=O)(=O)c1cccc(c1)C(=O)N1CCOC[C@@H]1[C@@H](Cc1ccccc1)O2 [Compound 209, (8R)-9-Benzyl-13-(2,6-dimethylphenyl)-6,10-dioxa-17λ^6-thia-3,14,16,23-tetraazatetracyclo[16.3.1.111,15.03,8]tricosa-1(22),11,13,15(23),18,20-hexaene-2,17,17-trione] | – | – | < 1000 nM | +++ (+++ is >60%)
Cc1cccc(C)c1-c1cc2nc(n1)NS(=O)(=O)c1cccc(c1)C(=O)N1Cc3ccccc3C[C@@H]1CO2 [Compound 211, (12R)-17-(2,6-Dimethylphenyl)-14-oxa-21λ^6-thia-3,18,20,27-tetraazapentacyclo[20.3.1.115,19.03,12.05,10]heptacosa-1(26),5(10),6,8,15(27),16,18,22,24-nonaene-2,21,21-trione] | – | – | < 1000 nM | +++ (+++ is >60%)
Cc1cccc(C)c1-c1cc2nc(n1)NS(=O)(=O)c1cccc(c1)C(=O)N1Cc3ccccc3C[C@H]1CO2 [Compound 212, (12S)-17-(2,6-Dimethylphenyl)-14-oxa-21λ^6-thia-3,18,20,27-tetraazapentacyclo[20.3.1.115,19.03,12.05,10]heptacosa-1(26),5(10),6,8,15(27),16,18,22,24-nonaene-2,21,21-trione] | – | – | < 1000 nM | ++ (++ is 30-60%)
Cc1cccc(C)c1-c1cc2nc(n1)NS(=O)(=O)c1cccc(c1)C(=O)N1CCc3ccccc3C(C1)O2 (stereo not shown) [Compound 220, 12-(2,6-Dimethylphenyl)-15-oxa-8λ^6-thia-1,9,11,26-tetraazapentacyclo[14.8.1.13,7.110,14.017,22]heptacosa-3(27),4,6,10(26),11,13,17,19,21-nonaene-2,8,8-trione] | – | – | < 1000 nM | +++ (+++ is >60%)
Cc1cccc(C)c1-c1cc2nc(n1)NS(=O)(=O)c1cccc(c1)C(=O)N1CC(CC3(CCCC3)C1)O2 (stereo not shown) [Compound 229, 18′-(2,6-Dimethylphenyl)-2′-oxa-14′λ^6-thia-7′,15′,17′,20′-tetraazaspiro[cyclopentane-1,5′-tetracyclo[14.3.1.13,7.19,13]docosane]-1′(20′),9′,11′,13′(21′),16′,18′-hexaene-8′,14′,14′-trione] | – | – | < 1000 nM | ++ (++ is 30-60%)
Cc1cccc(C)c1-c1cc2nc(n1)NS(=N)(=O)c1cccc(c1)C(=O)N1CCN(C(=O)OC(C)(C)C)CC(C1)O2 (stereo not shown) [Compound 240, tert-butyl 12-(2,6-dimethylphenyl)-8-imino-2,8-dioxo-15-oxa-8λ^6-thia-1,9,11,18,22-pentaazatetracyclo[14.4.1.13,7.110,14]tricosa-3,5,7(23),10,12,14(22)-hexaene-18-carboxylate] | ++ (++ is 30-60%) | 3000 to 30000 nM | – | –
Cc1cccc(C)c1-c1cc2nc(n1)NS(=O)(=O)c1cccc(c1)C1CCCCN1C(CC(C)C)CO2 (stereo not shown) [Compound 253] | – | – | – | + (+ is <300%)

Further lines, with some results ahead:

Ent. A Max Activity (%) (Enteroid Assay A) | EC50 (Enteroid Assay A) | EC50 [1] | Compound | Ent. A Max Activity (%) [2]
+ (+ is <30%) | – | – | Cc1cccc(C)c1-c1cc2nc(n1)NS(=N)(=O)c1cccc(c1)C(=O)N1CCNCC(C1)O2 (stereo not shown) [Compound 241, 12-(2,6-Dimethylphenyl)-8-imino-15-oxa-8λ^6-thia-1,9,11,18,22-pentaazatetracyclo[14.4.1.13,7.110,14]tricosa-3,5,7(23),10,12,14(22)-hexaene-2,8-dione] | –
+ (+ is <30%) | – | – | Cc1cccc(C)c1-c1cc2nc(n1)NS(=N)(=O)c1cccc(c1)C(=O)N1CCNCC(C1)O2 (stereo not shown) [Compound 242, 12-(2,6-Dimethylphenyl)-8-imino-15-oxa-8λ^6-thia-1,9,11,18,22-pentaazatetracyclo[14.4.1.13,7.110,14]tricosa-3,5,7(23),10,12,14(22)-hexaene-2,8-dione] | –
++ (++ is 30-60%) | 1000 to 3000 nM | – | Cc1cccc(C)c1-c1cc2nc(n1)NS(=N)(=O)c1cccc(c1)C(=O)N1CCN(Cc3ccccc3)CC(C1)O2 (stereo not shown) [Compound 246] | –
+ (+ is <30%) | 1000 to 3000 nM | – | Cc1cccc(C)c1-c1cc2nc(n1)NS(=N)(=O)c1cccc(c1)C(=O)N1CCN(CCC(C)(C)C)CC(C1)O2 (stereo not shown) [Compound 247] | –
++ (++ is 30-60%) | < 1000 nM | – | Cc1cccc(C)c1-c1cc2nc(n1)NS(=O)(=O)N1CCc3ccc(cc31)C(=O)N1Cc3ccccc3[C@@H](O2)[C@H]1CC(C)C [Compound 249] | –
++ (++ is 30-60%) | 1000 to 3000 nM | – | Cc1cccc(C)c1-c1cc2nc(n1)NS(=O)(=O)N1CCc3ccc(cc31)C(=O)N1Cc3ccccc3[C@@H](O2)[C@H]1CC(C)C [Compound 250] | –
– | – | 1000 to 3000 nM | COC(=O)C1CC2CN(C1)C(=O)Nc1cccc(c1)S(=O)(=O)Nc1nc(cc(-c3c(C)cccc3C)n1)O2 (stereo not shown) [Compound 252] | ++ (++ is 30-60%)
– | – | 1000 to 3000 nM | Cc1cccc(C)c1-c1cc2nc(n1)NS(=O)(=O)c1cccc(c1)C(=O)N1CC(C)(C)OCC1CO2 (stereo not shown) [Compound 254] | ++ (++ is 30-60%)
